Assay results from patent US20030099693A1, “Wafer” (priority 2001, published 2003).

Key:
Format in all cases: biochemical
Conditions in all cases: Adjusted for Plasma Protein Binding
uPA = uPA (Homo sapiens, UniProt P00749); experiment: Concentration for 50% enzyme inhibition, uPA
TPA = TPA (Homo sapiens, UniProt P00750); experiment: Concentration for 50% enzyme inhibition, TPA
From the text: (§1) The solubility range to achieve efficacious doses without adverse effects for a range of protease inhibitors is shown in Table 1.

Plasmin = Plasmin (Homo sapiens, UniProt P00747); experiment: Concentration for 50% enzyme inhibition, Plasmin
Plasmin, sequence (P00747 581-810 limits assumed, species assumed): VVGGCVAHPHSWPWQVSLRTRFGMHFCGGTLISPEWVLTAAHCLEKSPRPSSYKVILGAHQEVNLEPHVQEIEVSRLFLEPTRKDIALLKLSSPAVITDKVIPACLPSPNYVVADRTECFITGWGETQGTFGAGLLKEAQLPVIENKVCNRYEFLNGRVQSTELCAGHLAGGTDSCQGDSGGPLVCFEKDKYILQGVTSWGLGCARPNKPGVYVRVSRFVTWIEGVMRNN
Plasmin, sequence (P00747 97-580 partner limits assumed, species assumed): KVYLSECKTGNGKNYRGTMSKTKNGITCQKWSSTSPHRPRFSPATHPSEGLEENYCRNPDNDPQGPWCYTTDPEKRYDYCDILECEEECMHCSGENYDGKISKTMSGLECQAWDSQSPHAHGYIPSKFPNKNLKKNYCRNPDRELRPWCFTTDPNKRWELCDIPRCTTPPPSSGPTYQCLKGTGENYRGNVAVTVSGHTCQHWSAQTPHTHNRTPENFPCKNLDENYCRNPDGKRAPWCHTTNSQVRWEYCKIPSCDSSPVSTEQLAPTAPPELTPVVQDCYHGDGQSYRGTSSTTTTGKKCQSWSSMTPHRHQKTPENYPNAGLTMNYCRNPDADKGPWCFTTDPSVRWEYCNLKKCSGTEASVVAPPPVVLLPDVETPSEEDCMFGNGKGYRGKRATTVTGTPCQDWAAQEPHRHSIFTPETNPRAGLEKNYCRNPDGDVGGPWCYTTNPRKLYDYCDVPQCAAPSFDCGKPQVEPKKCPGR
From the text: as §1

MMP-9 = MMP-9 (Homo sapiens, UniProt P14780); experiment: Concentration for 50% enzyme inhibition, MMP-9
MMP-9, sequence (P14780 94-707, species assumed): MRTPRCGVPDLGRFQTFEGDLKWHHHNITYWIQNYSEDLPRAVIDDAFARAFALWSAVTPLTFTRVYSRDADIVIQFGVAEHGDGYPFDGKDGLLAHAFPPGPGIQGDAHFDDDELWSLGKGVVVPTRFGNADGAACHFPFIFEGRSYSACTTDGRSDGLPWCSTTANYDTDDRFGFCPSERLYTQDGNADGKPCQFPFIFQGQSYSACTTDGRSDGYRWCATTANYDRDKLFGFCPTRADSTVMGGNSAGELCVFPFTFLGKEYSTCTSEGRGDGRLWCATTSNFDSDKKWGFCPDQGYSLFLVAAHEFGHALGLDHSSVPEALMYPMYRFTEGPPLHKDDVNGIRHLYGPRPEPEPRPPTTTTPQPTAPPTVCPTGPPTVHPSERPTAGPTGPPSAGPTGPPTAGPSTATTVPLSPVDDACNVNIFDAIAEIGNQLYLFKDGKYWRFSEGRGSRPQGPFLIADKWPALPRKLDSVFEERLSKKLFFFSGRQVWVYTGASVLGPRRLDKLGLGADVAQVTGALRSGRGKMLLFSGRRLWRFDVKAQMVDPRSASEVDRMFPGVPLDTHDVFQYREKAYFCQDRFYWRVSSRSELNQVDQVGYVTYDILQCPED
From the text: as §1

MMP-3 = MMP-3 (Homo sapiens, UniProt P08254); experiment: Concentration for 50% enzyme inhibition, MMP-3
MMP-3, sequence (P08254 100-477, species assumed): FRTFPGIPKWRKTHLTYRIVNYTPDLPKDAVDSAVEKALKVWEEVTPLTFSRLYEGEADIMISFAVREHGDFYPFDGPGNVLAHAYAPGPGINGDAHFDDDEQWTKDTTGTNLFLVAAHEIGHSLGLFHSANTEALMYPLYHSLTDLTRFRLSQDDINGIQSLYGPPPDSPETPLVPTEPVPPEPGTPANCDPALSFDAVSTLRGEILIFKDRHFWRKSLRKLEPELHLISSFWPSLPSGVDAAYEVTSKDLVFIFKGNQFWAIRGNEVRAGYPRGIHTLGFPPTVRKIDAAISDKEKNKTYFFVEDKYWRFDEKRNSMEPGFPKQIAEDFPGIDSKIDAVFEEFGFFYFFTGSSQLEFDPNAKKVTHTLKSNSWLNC

MMP-2 = molecular target: T1, MMP-2 (Homo sapiens, UniProt P08253); experiment: Concentration for 50% enzyme inhibition, MMP-2
T1 sequence (P08253 110-660): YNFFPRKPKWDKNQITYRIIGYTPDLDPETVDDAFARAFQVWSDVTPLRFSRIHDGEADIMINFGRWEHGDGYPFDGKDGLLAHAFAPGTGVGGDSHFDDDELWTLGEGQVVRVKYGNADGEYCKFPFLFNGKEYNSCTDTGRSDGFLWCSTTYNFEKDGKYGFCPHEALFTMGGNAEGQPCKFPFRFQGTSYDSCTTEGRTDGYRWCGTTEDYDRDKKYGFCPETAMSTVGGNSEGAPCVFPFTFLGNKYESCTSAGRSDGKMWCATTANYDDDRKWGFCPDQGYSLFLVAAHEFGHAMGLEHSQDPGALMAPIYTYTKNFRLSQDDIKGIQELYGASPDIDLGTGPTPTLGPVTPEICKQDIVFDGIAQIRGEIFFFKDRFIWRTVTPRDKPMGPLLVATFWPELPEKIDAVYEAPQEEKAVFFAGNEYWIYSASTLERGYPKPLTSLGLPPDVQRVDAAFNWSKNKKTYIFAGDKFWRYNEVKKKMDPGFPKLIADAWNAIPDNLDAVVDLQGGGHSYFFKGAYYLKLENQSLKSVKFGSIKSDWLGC

MMP-14 = MMP-14 (Homo sapiens, UniProt P50281); experiment: Concentration for 50% enzyme inhibition, MMP-14

TPA, sequence (P00750 36-562, species assumed): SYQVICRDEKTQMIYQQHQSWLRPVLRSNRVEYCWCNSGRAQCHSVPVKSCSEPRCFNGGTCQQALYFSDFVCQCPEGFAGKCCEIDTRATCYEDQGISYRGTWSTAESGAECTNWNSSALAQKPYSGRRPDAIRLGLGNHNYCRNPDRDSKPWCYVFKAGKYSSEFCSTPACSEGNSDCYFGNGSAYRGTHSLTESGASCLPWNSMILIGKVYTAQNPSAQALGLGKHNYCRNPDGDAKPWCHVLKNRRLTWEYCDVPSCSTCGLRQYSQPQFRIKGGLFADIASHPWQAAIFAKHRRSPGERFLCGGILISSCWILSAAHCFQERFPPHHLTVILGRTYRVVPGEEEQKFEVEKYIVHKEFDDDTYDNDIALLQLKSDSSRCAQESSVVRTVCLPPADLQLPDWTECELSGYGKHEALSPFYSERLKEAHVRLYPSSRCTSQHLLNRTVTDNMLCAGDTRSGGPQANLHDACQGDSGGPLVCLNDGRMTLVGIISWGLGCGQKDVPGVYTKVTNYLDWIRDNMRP

IC50 (uPA) [mM] | IC50 (TPA) [mM] | IC50 (Plasmin) [mM] | IC50 (MMP-9) [mM] | IC50 (MMP-3) [mM] | IC50 (MMP-2) [mM] | IC50 (MMP-14) [mM] | Compound
0.0117 | > 33.2 | 33.2 |  |  |  |  | NC(N)=Nc1ncc(Cl)c2ccc(-c3cccc(C(=O)O)c3)cc12 [inhibitor X, 3-(4-Chloro-1-guanidino-7-isoquinolyl)benzoic acid]
 |  |  | 16.6 | 0.0175 | 27.2 | 35.6 | COC[C@@H](NC(=O)[C@@H](NC(=O)[C@H](CCCc1ccc(-c2ccccc2)c(C)c1)CC(=O)O)C(C)(C)C)c1ccccc1 [A, (3R)-3-({[(1S)-2,2-Dimethyl-1-({[(1S)-2-methoxy-1-phenylethyl]amino}carbonyl)-propyl]amino}carbonyl)-6-[(3-methyl-4-phenyl)phenyl]hexanoic acid]
